Data on six compounds can be found in US9828384B2, “Spiro-lactam NMDA receptor modulators and uses thereof” (Aptinyx Inc., priority 2013, dated 2017).

Read-outs that look alike come from different tables or passages of the source.

Assay [1] addresses T1, NMDA receptor (Rattus norvegicus, UniProt P35439).
T1 construct: well washed rat cortical membranes (200 μg); from tissue; host or cells: rat cerebral cortex membranes
The experiment in a line: [3H] MK-801 Binding Assay (MK-801 Glycine Site Binding Assay: Rat Cortex). The procedure:
Assays were conducted as described in Moskal et al. (Moskal, J. R., Kuo, A. G., Weiss, C., Wood, P. L., O'Connor Hanson, A., Kelso, S., Harris, R. B., Disterhoft, J. F., 2005. GLYX-13: a monoclonal antibody-derived peptide that acts as an N-methyl-D-aspartate receptor modulator. Neuropharmacology. 49, 1077-87) The potentiation of [^3H]MK-801 binding (5 nM; 22.5 Ci/mmol) to well washed rat cortical membranes (200 μg) was measured under non-equilibrium conditions (15 min @25° C.) in the presence of increasing concentrations of test compounds and 50 μM glutamate. Zero levels were determined in the absence of any glycine ligand and in the presence of 30 μM 5,7 DCKA. Maximal stimulation was measured in the presence of 1 mM glycine, and 50 μM glutamate was present in all samples. The facilitation of [^3H]MK-801 binding by tests compounds was calculated by using a 3 parameter log agonist vs. response equation (Graph pad Prism, USA) and potency (EC50, expressed in pM) and maximal activity (% maximal stimulation) were calculated for the test compound.

Assay [2] concerns LTP. Briefly: LTP augmentation. The following applies: LTP concentration 1 uM.
Assay [3] can be described thus: Porsolt floating time inhibition. The following applies: 1 hour post dose. It counts as in vivo.
The mark [4] stands for this setting: Table 3, read-out: MK-801 Glycine Site Binding Assay: Rat Cortex EC50.

The EC50 is the concentration at which the effect is half-maximal. For the compound “2-(2-hydroxy-1-(pyrimidin-2-yl)propyl)-3,6-dimethyl-2, 5-diazaspiro[3,4]octan-1-one [Compound C-33]”, the concentration giving a half-maximal response (EC50) in assay [1] (setting [4]) turned out to be 0.00713 nM. Further, in assay [2], the “LTP: LTP Augmentation (%)” value was 30%.

In the case of `C[C@@H](O)[C@@H](c1ncno1)N1CC2(CCCN2C(=O)OC(C)(C)C)C1=O` (stereo partly drawn) [Compound C-15, tert-butyl 2-((1S,2R)-2-hydroxy-1-(1,2,4-oxadiazol-5-yl)propyl)-1-oxo-2,5-diazaspiro[3,4]octane-5-carboxylate], in assay [3] (1 mg/kg PO), the “Unified Activity Data: Porsolt Floating Time Inhibition (Percent)” value amounted to 86%. Also, the “Unified Activity Data: LTP Augmentation (Percent)” value in assay [2] is reported as 120%.

As to `CC(O)C(c1ncccn1)N1CC2(CCC(C)N2C(=O)OC(C)(C)C)C1=O` (centres unmarked) [Compound C-19, tert-butyl 2-(2-hydroxy-1-(pyrimidin-2-yl)propyl)-6-methyl-1-oxo-2,5-diazaspiro[3,4]octane-5-carboxylate], the concentration giving a half-maximal response (EC50) in assay [1] (setting [4]) is 0.11 nM. Besides, the “LTP: LTP Augmentation (%)” value in assay [2] was determined as 110%.

Take `CC1N([C@@H](c2nnco2)[C@H](C)O)C(=O)C12CCCN2C(=O)OC(C)(C)C` (stereo partly drawn) [Compound C-26, tert-butyl 2-((1R, 2S)-2-hydroxy-1-(1,3,4-oxadiazol-2-yl)propyl)-1-methyl-3-oxo-2,5-diazaspiro[3,4]octane-5-carboxylate]: the “LTP: LTP Augmentation (%)” value in assay [2] came to 65%.

As to `CC(O)C(c1ncccn1)N1C(=O)C2(CCCN2C(=O)OC(C)(C)C)C1C` (centres unmarked) [Compound C-29, tert-butyl 2-(2-hydroxy-1-(pyrimidin-2-yl)propyl)-1-methyl-3-oxo-2,5-diazaspiro[3,4]octane-5-carboxylate], the 50% effective concentration (EC50) in assay [1] (setting [4]) is 0.135 nM. The “LTP: LTP Augmentation (%)” value in assay [2] was 125%.

What is called Emax is the maximal effect, on the per cent scale that the assay sets. As for `CC(O)C(c1ncccn1)N1CC2(CCCN2)C1=O` (centres unmarked) [Compound Y, 2-(2-hydroxy-1-(pyrimidin-2-yl)propyl)-2,5-diazaspiro[3.4]octan-1-one], in assay [3] (3 mg/kg IV), the “Unified Activity Data: Porsolt Floating Time Inhibition (Percent)” value is 92%. The concentration for a half-maximal effect (EC50) came to 0.288 nM in assay [1] (Table 2, read-out: MK-801 Glycine Site Binding Assay: Rat Cortex EC50) and 0.288 nM in assay [1] (rat cortical membranes, 50 μM glutamate, read-out: potency (EC50) for potentiation of [3H]MK-801 binding). Further, in assay [1] (maximal stimulation measured with 1 mM glycine, 50 μM glutamate), the maximum response (Emax) came out at 14%. Also, in assay [2], the “Unified Activity Data: LTP Augmentation (Percent)” value was 140%.
